Test results: article PMC10093845, “Inhibitory Activities of Samples on Tyrosinases Were Affected by Enzyme Species and Sample Addition Methods” (International Journal of Molecular Sciences, 2023)
Read-outs that look alike come from different tables or passages of the source.

Columns and labels:
B16F10 cells [1] = test: Intracellular melanin content; format: cell-based, murine; conditions: 100 μg/mL, α-MSH stimulated B16F10 cells, 48 h
Method: Measurement of intracellular melanin content was determined according to our previous procedure. Briefly, Cells were cultured by complete medium containing compounds for 48 h. Then, intracellular melanin was extracted by 1 M NaOH containing 10% DMSO. The absorbance of the dissolved melanin was obtained using a microplate reader at 405 nm. The melanin content of each treatment group was calculated with the negative control group as reference.

[2] = tested on: ATYR (crude TYR extracted from apple); test: ATYR directly inhibitory activity; format: biochemical; conditions: for IC50: sample in direct contact with ATYR, kojic acid inhibits only at high concentration (800–4000 µM)
Method: The preparation of fresh-cut apple slices was the same as in Section 4.4. The preparation of crude ATYR was carried out by reference and slightly adjusted. […] Finally, these apple slices were used to extract ATYR. […] After the supernatant was divided, it was quick-frozen with liquid nitrogen, and then stored in the refrigerator at −80 °C. The supernatant was used for ATYR activity analysis. In a reaction system of 200 μL, 40 µL ATYR was mixed with 40 µL corresponding compound in 96-well plates. After incubated at 25 °C for 10 min, L-DOPA (120 µL, 8 mM) was added to each well as a substrate. Once the substrate was added in reaction system, the formation of dopachrome was immediately measured at 475 nm for 30 min at 1 min intervals. […] The group setting and the calculation of ATYR directly inhibitory activity were the same as in Section 4.2.

[3] = tested on: ATYR (crude TYR extracted from apple); test: ATYR indirectly inhibitory activity (apple slices soaked, then enzyme extracted); conditions: apple slices soaked in 1 mM for 10 min; water 0 ± 4% as negative control; negative = promotion
Method: The preparation of fresh-cut apple slices was the same as in Section 4.4. The preparation of crude ATYR was carried out by reference and slightly adjusted. […] Finally, these apple slices were used to extract ATYR. […] After the supernatant was divided, it was quick-frozen with liquid nitrogen, and then stored in the refrigerator at −80 °C. The supernatant was used for ATYR activity analysis. Apple slices, immersing in various test solutions for 10 min, were used to extract crude ATYR solution. […] The control group containing only ATYR (blank control and sample control) was set for synchronous detection to exclude background interference. With negative control as the reference, the indirectly inhibitory activity of ATYR was calculated in the same way as in Section 4.2.

MTYR (mushroom TYR) [4] = molecular target: T1, MTYR (mushroom TYR) (Agaricus bisporus, UniProt C7FF04); test: MTYR directly inhibitory activity; format: biochemical
Method: The MTYR directly inhibitory activity was assayed according to our previous procedure. Briefly, the reaction media was 200 µL in 96-well plates. MTYR (40 µL, 30 U/mL) in PBS (20 mM, pH 6.8) was incubated with the corresponding compound (40 µL) at 25 °C for 10 min. Then, L-DOPA ([…], 8 mM) was added to each well as a substrate. The other steps and the calculation of MTYR directly inhibitory activity were the same as above method in Section 4.2.

MTYR (mushroom TYR) [5] = molecular target: T1, MTYR (mushroom TYR); test: Kinetic analysis of MTYR (Lineweaver-Burk); format: biochemical; conditions: L-DOPA substrate
Method: The experimental method was the same as Section 4.8, except for the substrate concentration and compound concentration. A series of experiments were performed to determine the type of inhibition.
The molarities of L-DOPA were 0.0625, 0.25, 1, 4 and 8 mM. […] The Km and Vmax of MTYR were determined by the Michaelis–Menten equation. The Lineweaver–Burk plot was used to display the data. Secondary replot of Lineweaver–Burk plot or intercept was used to display inhibition constant (Ki) and α.

BTYR mRNA = test: qPCR analysis of TYR gene; format: cell-based, murine; conditions: 100 μg/mL, 24 h, α-MSH stimulated
Method: Measurement of mRNA expression of TYR was determined according to our previous procedure. […] Total RNAs prepared were followed and qPCR analysis of TYR were carried on with β-actin as an internal control.

B16F10 cells [6] = test: Cell viability (CCK-8); format: cell-based, murine
Method: (§1) Referring to our previous methods. […] Measurement of cell viability was determined according to our previous procedure. In brief, cells were seeded into 96-well plates at a density of 1 × 10^4 cells/well and incubated for 24 h. Then, the culture medium was replaced with complete medium containing compound and further incubated at 37 °C for 48 h. After rinsing once with D-PBS, 100 µL DMEM containing 10% CCK-8 was added to each well. Followed by another 1 h incubation, the absorbance at 450 nm was measured. […] The cell viability was expressed as a percentage of the control.

[7] = molecular target: T2, BTYR (TYR crude enzyme extract from B16F10 cells) (Mus musculus, UniProt P11344); test: BTYR directly inhibitory activity (TYR extraction followed by sample treatment, non-cellular system); format: biochemical, murine
T2 construct: The lysates, called BTYR, were centrifuged at 12,000 rpm for 10 min at 4 °C; endogenous in cells; host or cells: B16F10 murine melanoma cells
T2 sequence (P11344 19-533): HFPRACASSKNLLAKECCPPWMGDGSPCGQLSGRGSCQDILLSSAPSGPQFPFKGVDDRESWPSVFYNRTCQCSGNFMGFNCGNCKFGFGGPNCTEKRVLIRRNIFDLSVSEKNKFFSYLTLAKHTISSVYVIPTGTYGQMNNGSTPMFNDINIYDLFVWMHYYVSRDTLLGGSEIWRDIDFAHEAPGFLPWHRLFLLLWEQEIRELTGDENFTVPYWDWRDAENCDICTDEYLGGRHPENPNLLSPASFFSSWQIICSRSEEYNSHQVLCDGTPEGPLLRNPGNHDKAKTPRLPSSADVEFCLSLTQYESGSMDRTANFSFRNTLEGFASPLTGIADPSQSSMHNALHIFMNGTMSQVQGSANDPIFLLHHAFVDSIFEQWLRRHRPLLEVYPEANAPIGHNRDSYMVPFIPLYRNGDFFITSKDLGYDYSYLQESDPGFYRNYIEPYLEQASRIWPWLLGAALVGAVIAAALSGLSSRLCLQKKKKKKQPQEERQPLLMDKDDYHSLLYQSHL
Method: B16F10 cells at the exponential phase in 10 cm^2 cell culture dish were washed with D-PBS two times and incubated for 30 min at −20 °C in 1.16 mL of lysis buffer. The lysates, called BTYR, were centrifuged at 12,000 rpm for 10 min at 4 °C.
The reaction system in 96-well plate was 100 μL. 20 μL of BTYR was mixed with 20 μL compounds and incubated at 25 °C for 10 min, then 60 μL of 8 mM L-DOPA was added to start the reaction. A Synergy H1 microplate reader (BioTek Instruments, Inc., Winooski, VT, USA) was used to dynamically monitor the optical densities at 475 nm. Absorbance was measured every minute and sustained 30 min. The initial velocity (v0) of each reaction was represented by the slope of the initial linear range of the progress curve, and was used to calculate the relative enzyme activity of each treatment [16].
BTYR directly inhibitory activity compared to negative control could be expressed by following formula [16]. Δsample = sample − sample control, Δcontrol = negative control − blank control(1) kΔsample = (Δsamplet1 − Δsamplet0)/(t1 − t0), kΔcontrol = (Δcontrolt1 − Δcontrolt0)/(t1 − t0)(2) (3) BTYR direct inhibition %=1−kΔsample/kΔcontrol×100 […]

[8] = molecular target: T3, BTYR (intracellular TYR of B16F10 cells) (Mus musculus, UniProt P11344); test: BTYR indirectly inhibitory activity in cells cultured by compounds; format: cell-based, murine
T3 construct: The lysates, called BTYR, were centrifuged at 12,000 rpm for 10 min at 4 °C; endogenous in cells; host or cells: B16F10 murine melanoma cells
T3 sequence (P11344 19-533): T2 sequence (P11344 19-533)
Method: Referring to our previous methods. In short, B16F10 murine melanoma cells from Stem Cell Bank (Chinese Academy of Sciences, Shanghai, China) were cultured in DMEM supplemented with 10% FBS in a humidified atmosphere of 5% CO2 at 37 °C.
The BTYR indirectly inhibitory activity was assayed according to our previous procedure with slight modification. Cells were cultured by complete medium containing compounds for 48 h and lysed by 120 μL of lysis buffer to obtain crude BTYR extract. […] The molarities of EGCG were 25, 50, 100, 125, 150, 175 and 200 μM. The treatment group without samples was negative control.
In a reaction system of 100 μL, 20 μL of BTYR was mixed with 60 μL of 8 mM L-DOPA (the remaining volume was supplemented with 20 mM pH 6.8 PBS), and immediately placed at 475 nm for dynamic detection for 30 min. The absorbance was measured once per minute. The control group containing only BTYR (blank control and sample control) was set for synchronous detection to exclude background interference.
With negative control as the reference, the indirectly inhibitory activity of BTYR was calculated in the same way as in Section 4.2.

B16F10 cells [9] = conditions: previous studies; cited from earlier work
MTYR = conditions: cited from earlier work
HTYR = conditions: cited from earlier work
Cell viability (CCK-8) = format: cell-based, murine; conditions: mouse, B16F10 melanoma cells, 48 h
Method: as §1

HMV-II = tested on: HMV-II; parameters: method as in PMID 15056856; conditions: concentration lower than 1 mM; cited from earlier work

T1 sequence (C7FF04 1-392): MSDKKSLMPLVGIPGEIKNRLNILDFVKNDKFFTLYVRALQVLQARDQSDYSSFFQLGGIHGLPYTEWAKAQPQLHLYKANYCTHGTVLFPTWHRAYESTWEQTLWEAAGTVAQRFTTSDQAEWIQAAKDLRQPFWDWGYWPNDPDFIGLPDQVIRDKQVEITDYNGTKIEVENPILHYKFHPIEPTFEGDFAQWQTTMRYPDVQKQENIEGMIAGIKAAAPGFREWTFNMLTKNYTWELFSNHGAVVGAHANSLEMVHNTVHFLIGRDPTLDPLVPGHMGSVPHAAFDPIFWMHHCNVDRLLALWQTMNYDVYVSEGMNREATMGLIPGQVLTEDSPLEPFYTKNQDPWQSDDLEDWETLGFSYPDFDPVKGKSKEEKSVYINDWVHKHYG
T1 sequence (G1K3P4 1-150 partner): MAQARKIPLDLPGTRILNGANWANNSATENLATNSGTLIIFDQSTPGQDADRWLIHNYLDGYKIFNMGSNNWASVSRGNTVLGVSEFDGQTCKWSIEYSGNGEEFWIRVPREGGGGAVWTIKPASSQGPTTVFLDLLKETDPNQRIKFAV

## O=C(O[C@@H]1Cc2c(O)cc(O)cc2O[C@@H]1c1cc(O)c(O)c(O)c1)c1cc(O)c(O)c(O)c1 [EGCG, Epigallocatechin gallate]
B16F10 cells [1]
  intracellular melanin content: significantly reduce
[2]
  IC50: 1.77 ± 0.02 mM
[3]
  ATYR indirectly inhibitory activity: −7 ± 7%
MTYR (mushroom TYR) [4]; L-DOPA substrate
  IC50: 1.42 ± 0.061 mM
MTYR (mushroom TYR) [4]; ratio of IC50
  MTYR directly inhibitory activity relative to kojic acid: 1/15
MTYR (mushroom TYR) [5]
  Inhibition type: competitive
  Km (change with increasing compound molarity): increasing
  Vmax (change with increasing compound molarity): constant
MTYR (mushroom TYR) [5]; replot of Lineweaver–Burk slopes
  Ki: 170 µM
BTYR mRNA
  mRNA expression of BTYR in cells: significantly inhibit
B16F10 cells [6]; 25 µM, 48 h
  Cell Viability (%): 100 ± 2%
B16F10 cells [6]; 50 µM, 48 h
  Cell Viability (%): 98 ± 2%
B16F10 cells [6]; 100 µM, 48 h
  Cell Viability (%): 95 ± 6%
B16F10 cells [6]; 200 µM, 48 h
  Cell Viability (%): 106 ± 1%
B16F10 cells [6]; 400 µM, 48 h
  Cell Viability (%): 66 ± 4%
B16F10 cells [6]; 600 µM, 48 h
  Cell Viability (%): 4 ± 0%
B16F10 cells [6]; 800 µM, 48 h
  Cell Viability (%): 2 ± 1%
B16F10 cells [6]; 1000 µM, 48 h
  Cell Viability (%): 1 ± 1%
B16F10 cells [6]; 1200 µM, 48 h
  Cell Viability (%): −1 ± 0%
[7]; 100 μg/mL
  catalytic activity of BTYR in non-cellular system: could not
[7]; 0.025–2.4 mM EGCG
  BTYR direct inhibition rate: < 50%
[8]; 100 μg/mL, α-MSH stimulated B16F10 cells, 48 h
  intracellular BTYR activity: inhibit intracellular BTYR activity
[8]; cells cultured with compound 48 h, then TYR extracted
  IC50: 195 ± 3 µM
B16F10 cells [9]
  concentration significantly reducing melanin content of B16F10 cells in a dose-dependent manner: 55 to 218 µM

## Oc1ccc(O)cc1 [hydroquinone]
MTYR; read-out: IC50 on MTYR
  IC50: 0.0011 mM
HTYR
  activity on HTYR relative to that on MTYR: 1/4000
HTYR; read-out: IC50 on HTYR
  IC50: 4.4 mM

## O=c1cc(CO)occ1O [kojic acid]
B16F10 cells [1]
  intracellular melanin content: significantly reduce
[2]; low concentration (12.5–400 µM) of kojic acid, read-out: EC50, promotion of ATYR activity
  EC50: 96 ± 4 µM
[2]
  IC50: 2.11 ± 0.02 mM
[3]
  ATYR indirectly inhibitory activity: −71 ± 4%
BTYR mRNA
  mRNA expression of BTYR in cells: significantly inhibit
Cell viability (CCK-8); 25 µM
  viability at 48 h, 25 µM: 100 ± 4%
Cell viability (CCK-8); 50 µM
  viability at 48 h, 50 µM: 101 ± 2%
Cell viability (CCK-8); 100 µM
  viability at 48 h, 100 µM: 95 ± 1%
Cell viability (CCK-8); 200 µM
  viability at 48 h, 200 µM: 90 ± 3%
Cell viability (CCK-8); 400 µM
  viability at 48 h, 400 µM: 90 ± 3%
Cell viability (CCK-8); 600 µM
  viability at 48 h, 600 µM: 96 ± 5%
Cell viability (CCK-8); 800 µM
  viability at 48 h, 800 µM: 99 ± 4%
B16F10 cells [9]
  concentration significantly reducing melanin content of B16F10 cells in a dose-dependent manner: 175 to 700 µM

## OC[C@H]1O[C@H](Oc2ccc(O)cc2)[C@H](O)[C@@H](O)[C@@H]1O [α-arbutin]
MTYR
  inhibition of the diphenolase activity of MTYR: could not inhibit
HMV-II
  effect on growth of HMV-II: did not inhibit the growth

## OC[C@H]1O[C@@H](Oc2ccc(O)cc2)[C@H](O)[C@@H](O)[C@@H]1O [β-arbutin]
[2]; 0.025–320 mM β-arbutin, direct
  promotion of ATYR activity (max): ≤ 21%
[3]
  ATYR indirectly inhibitory activity: 80 ± 0%
MTYR; read-out: IC50, diphenolase activity of MTYR
  IC50: 8.4 mM
B16F10 cells [6]; 25 µM
  Cell Viability (%): 108 ± 2%
B16F10 cells [6]; 50 µM
  Cell Viability (%): 115 ± 4%
B16F10 cells [6]; 100 µM
  Cell Viability (%): 125 ± 2%
B16F10 cells [6]; 200 µM
  Cell Viability (%): 138 ± 3%
B16F10 cells [6]; 400 µM
  Cell Viability (%): 171 ± 1%
B16F10 cells [6]; 600 µM
  Cell Viability (%): 195 ± 3%
B16F10 cells [6]; 800 µM
  Cell Viability (%): 206 ± 0%
B16F10 cells [6]; 1000 µM
  Cell Viability (%): 211 ± 1%
B16F10 cells [6]; 1200 µM
  Cell Viability (%): 222 ± 2%
B16F10 cells [9]
  concentration significantly reducing melanin content of B16F10 cells in a dose-dependent manner: 43.8 to 700 µM
